In patent publication US20230357320A1, “HELICAL STAPLED PEPTIDES AND USES THEREOF” (FOG PHARMACEUTICALS, INC., priority 2020, published 2023):
Read-outs that look alike come from different tables or passages of the source. Starred links: 1 amine or outer side, 2 acyl side, 3 side chain; linkers in the order of their positions; H or OH if unused. Positions of bridges follow the written chain, without caps; N, C: chain ends. Non-standard residues stand in square brackets, D forms with d. Residues, ends and D or L forms follow the SMILES beside them. Primed or numbered codes have the meaning given here. *: point of attachment. PL3 = (R)-N-acetyl-2-(2'-propenyl)proline (alpha-allyl proline), stapling residue, C=CC[C@@]1(C(=O)*)CCCN1C(C)=O; PL3″ = (R)-2-(2'-propenyl)proline (alpha-allyl proline), N-acetylated, C=CC[C@@]1(C(=O)*)CCCN1C(C)=O; X1 = O=C([C@]1(CC=[*:3])CCCN1[*:1])[*:2]; Ala(cPr) = N[C@@H](CC1CC1)C(=O)O; S5 = C=CCCC[C@](C)(N)C(=O)O

B1: PLL5-5 (Ac-PL3-Thr-Leu-S5-Tyr-Leu-Leu-Asp-NHMe) (peptide)
peptide: Ac-[PL3]TL[S5]YLLD-NHMe
modifications: staple 1-4; also: staple isomer 2, cis olefin
notes: Second-generation ProLock stapled peptide; X marks non-standard residues
B2: PLL5-6 (Ac-PL3-Lys-Leu-S5-Tyr-Leu-Leu-Asp-NHMe) (peptide)
peptide: Ac-[PL3]KL[S5]YLLD-NHMe
modifications: staple 1-4; also: staple isomer 2, cis olefin
notes: as for B1
B3: PLL7-20 (Ac-PL3-Ala-Leu-S5-His-Leu-Leu-Asn-NHMe) (peptide)
peptide: Ac-[PL3]AL[S5]HLLN-NHMe
modifications: staple 1-4; also: staple isomer 2, cis olefin
notes: as for B1
B4: PLL5-11 (Ac-PL3-Leu-Leu-S5-Tyr-Leu-Leu-His-NHMe) (peptide)
peptide: Ac-[PL3]LL[S5]YLLH-NHMe
modifications: staple 1-4; also: staple isomer 2, cis olefin
notes: as for B1
B5: PLL5-12 (Ac-PL3-Leu-Leu-S5-Tyr-Leu-Leu-Gln-NHMe) (peptide)
peptide: Ac-[PL3]LL[S5]YLLQ-NHMe
modifications: staple 1-4; also: staple isomer 2, cis olefin
notes: as for B1
B6: PLL5-1 (Ac-PL3-Leu-Leu-S5-Tyr-Leu-Leu-Asp-Tyr-NHMe) (peptide)
peptide: Ac-[PL3″]LL[S5]YLLDY-NHMe
modifications: staple 1-4; also: staple isomer 2, cis olefin
notes: as for B1
B7: PLL7-1 (Ac-PL3-Thr-Leu-S5-Tyr-Leu-Leu-Asp-Asp-NHMe) (peptide)
peptide: Ac-[PL3]TL[S5]YLLDD-NHMe
modifications: staple 1-4; also: staple isomer 2, cis olefin
notes: as for B1
B8: PLL5-2 (Ac-PL3-Leu-Leu-S5-Tyr-Leu-Leu-Asp-Asp-NHMe) (peptide)
peptide: Ac-[PL3]LL[S5]YLLDD-NHMe
modifications: staple 1-4; also: staple isomer 2, cis olefin
notes: as for B1
B9: PLL5-3 (Ac-PL3-Leu-Leu-S5-Tyr-Leu-Leu-Gln-Tyr-NHMe) (peptide)
peptide: Ac-[PL3]LL[S5]YLLQY-NHMe
modifications: staple 1-4; also: staple isomer 2, cis olefin
notes: as for B1
B10: PLL7-8 (Ac-PL3-Ala-Leu-S5-Tyr-Leu-Leu-Gln-Asp-NHMe) (peptide)
peptide: Ac-[PL3]AL[S5]YLLQD-NHMe
modifications: staple 1-4; also: staple isomer 2, cis olefin
notes: as for B1

What was measured:
[1] = in vitro; design: dose or concentration left out as unconfirmed; conditions: PAMPA, pH 7.4, PAMPA Pe
Procedure: (§1) The synthesized peptides were first analyzed with a PAMPA assay. […] The PAMPA plate system is composed of two compartments, donor and acceptor, which are separated by a phospholipid-infused membrane. The amount of compound transferred from the acceptor well into the donor well over a period of incubation time is used to determine the passive permeability of a compound.
(§2) The two plates are separated by a membrane infused with phospholipids. […] The amount of compound transferred from one well to the other is usually quantified by reverse-phase HPLC-mass spectrometry.
(§3) Briefly, all PAMPA assays were performed using the commercially available PAMPA plate system from Corning, which uses a proprietary membrane composed of structured phospholipids. […] To prevent nonspecific peptide loss to the plates, the acceptor wells of the Corning PAMPA plates were blocked overnight with 5% nonfat milk with 0.1% Triton X-100 in Dulbecco's phosphate buffer saline (DPBS) at pH=7.4, followed by extensive washing prior to assays. The donor wells and membrane itself were not exposed to the milk/Triton solution. […] The PAMPA experiments described herein were performed using plates from Corning Lot #9112010, Lot #9112011 and Lot #7317005 (Corning Inc., Corning, New York, USA).
(§4) To set up PAMPA assays, the PAMPA plate system was equilibrated at room temperature for at least an hour before setting up the assay. The acceptor plate preincubated with milk blocking solution was washed with water, followed by DPBS buffer. 300 μL of 5% DMSO in DPBS at pH=7.4 was added to the pre-blocked acceptor plate, and 200 μL of 10M compounds made with 5% DMSO in DPBS at pH=7.4 was added to the donor plate. The donor plate with a lid was then carefully inserted into the acceptor plate with no bubbles formed at the interface of donor and acceptor plates. The PAMPA assay plate was covered with aluminum foil and placed in a 37° C. incubator for 5 hours. 10 M input solution of all compounds was diluted 20-fold to a final acetonitrile concentration of 50% before analyzing by reverse-phase HPLC and Q-Exactive plus mass spectrometer. At the end of 5 hours, PAMPA donor and acceptor plates were separated and diluted 20-fold and 2-fold respectively to a final acetonitrile concentration of 50%. The diluted solutions of PAMPA donor and acceptor plates were analyzed by reverse-phase HPLC and Q-Exactive plus mass spectrometer.
(§5) Pe measures the passive permeability of each compound tested in the PAMPA assay, whereas % retention measures the amount of compound retained in solution at the end of the assay compared to the input sample.

[2] = CHI Log D measurement (chromatographic hydrophobicity index); conditions: pH 7.4
Procedure: Finally, to measure hydrophobicity, a CHI Log D measurement assay was employed. […] The retention time measurements were performed using reverse-phase HPLC and Q-Exactive mass spectrometer with Phenomenex Gemini C-18 column (3 uM, 50×3 mm). The reverse-phase chromatography was performed using a gradient of 10 mM ammonium acetate at pH=7.4 and acetonitrile solvents. Using the identical solvent setup, gradient, and flowrate, ProLock stapled peptides were injected onto the column to determine the tR of peptides. Using the calibration curve shown in FIG. 7, tR is converted into CHI. CHI was converted into CHI Log D using the following equation.

[3] = biological target: T1, ERβ LBD (Homo sapiens, UniProt Q92731); test: Competition fluorescence polarization (FP) binding assay with FITC-ERL4 probe; conditions: read-out: EC50
T1 construct: pET28a+ vector containing ERβ LBD (residues from 261 to 500) along with an N-terminal His6-yBBr-TEV tag; His6 (N); yBBr (N); TEV cleavage site (N); made in house; host or cells: E. coli BL21(DE3) pLysS
Procedure: In addition to the PAMPA assay, to study the affinity of the first-generation ProLock™ stapled peptides to the Estrogen receptor p ligand-binding domain (ERβ LBD), a fluorescence polarization (FP) binding assay in competition format was used in the presence of the endogenous ERβ LBD ligand estradiol. Competition Fluorescence Polarization (FP) assay was performed on the peptides to determine their half-maximal effective concentration (EC50). To do this, FITC labeled ERL4 peptide (FITC-βAla-His-Pro-Leu-Leu-Nle-Arg-Leu-Leu-Leu-Ser-Pro-CONH2) was synthesized to be used as a fluorescence probe based on existing literature (Fuchs et al., Journal of the American Chemical Society 2013, 135 (11), 4364-4371). Direct FP was performed in black 384-well plates (Corning). The final volume of each assay well was 40 μL with constant concentration of FITC labeled ERL4 peptide (10 nM) and variable concentrations of ERβ LBD protein.
ERβ LBD expression and purification was performed as follows. BL21(DE3) pLysS E. coli cells were transformed with a pET28a+ vector containing ERβ LBD (residues from 261 to 500) along with an N-terminal His6-yBBr-TEV tag. An overnight culture in 10 mL of TB media containing 50 μg/mL kanamycin was prepared from a single bacterial colony. The overnight culture was subsequently added to 1 liter of autoclaved TB media containing 50 μg/mL kanamycin and shaken at 37° C. until an OD of 0.6-0.8 was reached. IPTG was added to the culture and left shaking for 6 hours. Bacterial culture was pelleted and resuspended in lysis buffer. Resuspended bacterial culture was incubated at 0° C. for 10 minutes before sonication at 65% amplitude with 10-sec cycles using a Branson Sonifier. The lysate was then cleared by centrifugation at 8000×g for 20 min. […] The expected molecular weight of the ERβ LBD protein is 30.8 KDa, which molecular weight was confirmed by SDS PAGE analysis. Purified ERβ LBD was concentrated to 90 μM and was stored at −80° C. buffer.
Competition FP assays were also employed. These were performed in black 384-well plates (Corning). The final volume of each assay well was 80 μL containing constant concentrations of estradiol (1 μM) and FITC labeled ERL4 (10 nM). The ERβ LBD concentration was held constant (200 nM) while varying the concentration of ProLock stapled peptides (3-fold dilution from 10 μM). Upon addition of samples to each well, the plate was centrifuged for 10 seconds at 3000 rpm and incubated at 4° C. for 1 hour. FP measurements were performed at room temperature with excitation and emission wavelengths at 485 and 535 nm using a Clariostar microplate reader (BMG Labtech). Each plate had high and low polarization samples, which are used to normalize the assay data. The competition FP results were analyzed by Prism 7 (GraphPad). The non-linear regression analysis of the data was used to determine the half-maximal effective concentration (EC50) of ProLock stapled peptides. […] The normalized FP values shown in FIG. 6 are mean±S.E.M of at least four independent replicates.

[4] = for % Retention: PAMPA
Procedure: as §1, §2, §3, §4, §5

[5] = biological target: T2, Estrogen receptor β ligand-binding domain (ERβ LBD), residues 261 to 500, with N-terminal His6-yBBr-TEV tag (UniProt Q92731 261-500); test: competition fluorescence polarization against FITC-ERL4 probe, 200 nM ERβ LBD, 1 µM estradiol
T2 construct: range 261-500; Expressed in E. coli BL21(DE3) pLysS from pET28a+, purified by Ni-NTA and SEC; Assays were run in the presence of estradiol; also called ER LBD; not shown: N-terminal His6-yBBr-TEV tag

[6] = biological target: T2, Estrogen receptor β ligand-binding …; test: competition fluorescence polarization; 200 nM ERβ LBD, 10 nM FITC-ERL4 probe, 1 µM estradiol
Procedure: Competition FP assays were also employed. These were performed in black 384-well plates (Corning). The final volume of each assay well was 80 μL containing constant concentrations of estradiol (1 μM) and FITC labeled ERL4 (10 nM). […] Upon addition of samples to each well, the plate was centrifuged for 10 seconds at 3000 rpm and incubated at 4° C. for 1 hour. […] Each plate had high and low polarization samples, which are used to normalize the assay data. The competition FP results were analyzed by Prism 7 (GraphPad).

[7] = reverse-phase HPLC, Phenomenex Gemini C-18 column
[8] = Table 4, binding to ER LBD, estradiol 1 μM, FITC-ERL4 10 nM, ERβ LBD 200 nM, mean ± S.E.M, at least four replicates
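For % Retention in this document: Phospholipid-membrane PAMPA, donor and acceptor in DPBS pH 7.4 with 5% DMSO, 37 °C for 5 h, compound in each well quantified by reverse-phase HPLC-MS.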
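For PAMPA Pe (text) in this document: Phospholipid-membrane PAMPA, donor and acceptor in DPBS pH 7.4 with 5% DMSO, 37 °C for 5 h, compound in each well quantified by reverse-phase HPLC-MS.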
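For PAMPA Pe in this document: Phospholipid-membrane PAMPA, donor and acceptor in DPBS pH 7.4 with 5% DMSO, 37 °C for 5 h, compound in each well quantified by reverse-phase HPLC-MS.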
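For Papp in this document: Phospholipid-membrane PAMPA, donor and acceptor in DPBS pH 7.4 with 5% DMSO, 37 °C for 5 h, compound in each well quantified by reverse-phase HPLC-MS.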

T2 sequence (Q92731 261-500): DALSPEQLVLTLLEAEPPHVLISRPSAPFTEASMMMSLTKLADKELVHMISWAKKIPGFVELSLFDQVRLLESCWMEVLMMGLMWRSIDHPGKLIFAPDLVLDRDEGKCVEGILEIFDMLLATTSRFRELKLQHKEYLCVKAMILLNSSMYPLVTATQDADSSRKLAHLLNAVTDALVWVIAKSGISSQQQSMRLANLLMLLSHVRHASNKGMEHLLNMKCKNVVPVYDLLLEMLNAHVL

Molecule | Papp at 5 h [1] [×10⁻⁶ cm/s] | chromatographic logD [2, 7] | % Retention [4] [%] | binding result [5] | further results
CNC(=O)[C@H](Cc1ccc(O)cc1)NC(=O)[C@H](CC(C)C)NC(=O)[C@H](CC(C)C)NC(=O)[C@H](Cc1c[nH]cn1)NC(=O)[C@H](CCCNC(=N)N)NC(=O)[C@]1(C)CCCC=CC[C@]2(CCCN2C(C)=O)C(=O)N[C@@H](CC(C)C)C(=O)N[C@@H](CC(C)C)C(=O)N1 [PLL4-2, Ac-PL3-Leu-Leu-S5-Arg-His-Leu-Leu-Tyr-NHMe] (Ac-[X1]LL[S5]RHLLY-NHMe; staple 1-4) | ≤ 0.1 | 2.7 | 43 ± 2 | – | EC50 ([3]; binding towards the ERβ LBD): 400 nM
CNC(=O)[C@@H](NC(=O)[C@H](CC(C)C)NC(=O)[C@H](CC(C)C)NC(=O)[C@H](CC1CC1)NC(=O)[C@]1(C)CCCC=CC[C@]2(CCCN2C(C)=O)C(=O)N[C@@H]([C@@H](C)O)C(=O)N[C@@H](CC(C)C)C(=O)N1)[C@@H](C)O [PLL7-23, Ac-PL3-Thr-Leu-S5-Cpa-Leu-Leu-Thr-NHMe] (Ac-[X1]TL[S5][Ala(cPr)]LLT-NHMe; staple 1-4) | < 0.1 | 3.2 | 92 ± 2 | – | EC50 [3, 8]: 2400 ± 100 nM
CC[C@H](C)[C@@H]1NC(=O)[C@]2(CC=CCCC[C@@](C)(C(=O)N[C@@H](CCCNC(=N)N)C(=O)N[C@@H](CC(C)C)C(=O)N[C@@H](CC(C)C)C(=O)N[C@@H](CCC(N)=O)C(=O)N[C@@H](Cc3ccc(O)cc3)C(=O)NC)NC(=O)[C@H](CC(C)C)NC1=O)CCCN2C(C)=O [PLL4-1, Ac-PL3-Ile-Leu-S5-Arg-Leu-Leu-Gln-Tyr-NHMe] (Ac-[X1]IL[S5]RLLQY-NHMe; staple 1-4) | ≤ 0.1 | 2.9 | 75 ± 2 | – | EC50 ([3]; binding towards the ERβ LBD): 200 nM
CNC(=O)[C@H](CC(=O)O)NC(=O)[C@H](CCC(N)=O)NC(=O)[C@H](CC(C)C)NC(=O)[C@H](CC(C)C)NC(=O)[C@H](Cc1ccc(O)cc1)NC(=O)[C@]1(C)CCCC=CC[C@]2(CCCN2C(C)=O)C(=O)N[C@@H](CC2CC2)C(=O)N[C@@H](CC(C)C)C(=O)N1 [PLL7-7, Ac-PL3-Cpa-Leu-S5-Tyr-Leu-Leu-Gln-Asp-NHMe] (Ac-[X1][Ala(cPr)]L[S5]YLLQD-NHMe; staple 1-4) | 1 ± 0.1 | 2 | 108 ± 3 | – | EC50 [3, 8]: 900 ± 100 nM; EC50 ([3]; binding towards the ERβ LBD): 800 to 1300 nM; PAMPA Pe [4]: 1.0 ± 0.1 (×10^−6) cm/sec; PAMPA Pe (text) [4]: exceeding 1 ×10^−6 cm/sec
CNC(=O)[C@H](CC(=O)O)NC(=O)[C@H](CC(C)C)NC(=O)[C@H](CC(C)C)NC(=O)[C@H](Cc1ccc(O)cc1)NC(=O)[C@]1(C)CCCC=CC[C@]2(CCCN2C(C)=O)C(=O)N[C@@H](CC(C)C)C(=O)N[C@@H](CC(C)C)C(=O)N1 [PLL4-10, Ac-PL3-Leu-Leu-S5-Tyr-Leu-Leu-Asp-NHMe] (Ac-[X1]LL[S5]YLLD-NHMe; staple 1-4) | 0.6 ± 0.1 | 2.4 | 63 ± 4 | – | EC50 ([3]; binding towards the ERβ LBD): 1500 nM; PAMPA Pe [4]: 0.6 ± 0.1 (×10^−6) cm/sec; PAMPA Pe (text) [4]: 0.3-0.7 ×10^−6 cm/sec
CNC(=O)[C@H](CC(=O)O)NC(=O)[C@H](Cc1c[nH]cn1)NC(=O)[C@H](CC(C)C)NC(=O)[C@H](CC(C)C)NC(=O)[C@H](CCCNC(=N)N)NC(=O)[C@]1(C)CCCC=CC[C@]2(CCCN2C(C)=O)C(=O)N[C@@H](CC(C)C)C(=O)N[C@@H](CC(C)C)C(=O)N1 [PLL7-9, Ac-PL3-Leu-Leu-S5-Arg-Leu-Leu-His-Asp-NHMe] (Ac-[X1]LL[S5]RLLHD-NHMe; staple 1-4) | 1.1 ± 0.2 | 2.1 | 85 ± 4 | – | EC50 [3, 8]: 1300 ± 100 nM; EC50 ([3]; binding towards the ERβ LBD): 800 to 1300 nM; PAMPA Pe [4]: 1.1 ± 0.2 (×10^−6) cm/sec; PAMPA Pe (text) [4]: exceeding 1 ×10^−6 cm/sec
CNC(=O)[C@H](Cc1ccc(O)cc1)NC(=O)[C@H](CCC(N)=O)NC(=O)[C@H](CC(C)C)NC(=O)[C@H](CC(C)C)NC(=O)[C@]1(C)CCCC=CC[C@]2(CCCN2C(C)=O)C(=O)N[C@@H](CC(C)C)C(=O)N[C@@H](Cc2c[nH]cn2)C(=O)N1 (single isomer, unassigned) [PLL4-7, Ac-PL3-Leu-His-S5-Leu-Leu-Gln-Tyr-NHMe] | 0.3 ± 0.1 | – | 46 ± 3 | – | chromatographic logD [2]: 2.5; EC50 ([3]; Table 2, binding to ER LBD, estradiol 1 μM, FITC-ERL4 10 nM, ERβ LBD 200 nM, mean ± S.E.M, at least four replicates): > 10000 nM; PAMPA Pe (text) [4]: 0.3-0.7 ×10^−6 cm/sec
B1 | – | – | – | no binding (tested: peptide titrated 3-fold from 10 µM) | –
B2 | – | – | – | no binding (tested: peptide titrated 3-fold from 10 µM) | –
B3 | – | – | – | no binding (tested: peptide titrated 3-fold from 10 µM) | –
B4 | – | – | – | no binding (tested: peptide titrated 3-fold from 10 µM) | –
B5 | – | – | – | – | EC50 [6]: 2000 nM
B6 | – | – | – | – | EC50 [6]: 3900 nM
B7 | – | – | – | no binding (tested: peptide titrated 3-fold from 10 µM) | –
B8 | – | – | – | – | EC50 [6]: 1200 nM
B9 | – | – | – | – | EC50 [6]: 500 nM
B10 | – | – | – | no binding (tested: peptide titrated 3-fold from 10 µM) | –
